Data published in US20220252625A1, “TREATMENT AND DIAGNOSIS OF CHRONIC INFLAMMATORY CONDITIONS IN THE LOWER URINARY TRACT” (SELECTIMMUNE PHARMA AB, priority 2019, published 2022).
Entries after “also recorded” stand apart in the source; their conditions may differ. Where two headings read alike, the source gives them in different places.

What was measured:
Substance P [1] = assay: Ten-patient CPPS trial: urine neuropeptides; assay type: in vivo, human; details: P<0.001
Experimental: (§1) A significant reduction in pain, urgency and frequency of urination was recorded in 9/10 patients (FIGS. 7c, 7d and 7e). Laboratory samples were obtained at diagnosis, after the initiation of anakinra treatment (n=10), during the “treatment break” and after continuation of anakinra treatment (n=9). Urine neuropeptides involved in the pain response (Substance P) were inhibited, with a biphasic response following the symptom score (FIG. 7f).

IL-1β = assay: Urine IL-1β concentration, patients with chronic cystitis; assay type: in vivo, human; details: FIG. 5
Experimental: Samples: Blood and urine samples for investigation of inflammatory processes as well as genetic and proteomic analyses.
For evaluation of the levels of systemic and local inflammatory processes, analyses of CRP, neutrophil count and Interleukins are performed in serum and urine.
To be able to define a treatment group where anakinra might serve as an effective therapeutic option, we searched for urine biomarkers. In addition to patient urine samples, samples were collected from healthy controls to compare urine concentrations of IL-1β and Substance P (SP). […] In contrast, SP concentrations was increased in patients during maximum symptoms (209 vs 75 pg/ml, P=0.003), indicating a biomarker for bladder inflammation (FIG. 2).

murine cystitis model = details: mice, cited from earlier work
[2] = system: patients with chronic cystitis and CPPS; assay: Open Anakinra trial, symptom score; assay type: in vivo, human
Experimental: The applicants have performed an open Anakinra trial in patients with chronic inflammatory conditions in the lower urinary tract, specifically chronic cystitis and CPPS. This structured observational study to investigate the effect of treatment with Anakinra in patients suffering from chronic cystitis and CPPS.
Inclusion visit: Patient is informed about the study and is included after signed informed consent is obtained. A structured interview and clinical investigation is performed. The disease severity is evaluated using a symptom score. Follow-up visits are booked.
A structured interview and clinical investigation is performed. Symptom severity is recorded.
Treatment with Anakinra is started and continued for seven days (until next visit).
Evaluation of effect after one week of treatment with Anakinra. A structured interview and clinical investigation are performed. Symptom severity is evaluated. Patients with no treatment effect are excluded from further treatment.
Follow-up after treatment pause. A structured interview and clinical investigation is performed. Symptom severity is evaluated. If the patient has relapse, Anakinra treatment is resumed.
Follow-up with evaluation of effect after three weeks of treatment with Anakinra. A structured interview and clinical investigation is performed. Symptom severity is evaluated.
Final visit after pause of treatment with Anakinra. A structured interview and clinical investigation is performed. Symptom severity is evaluated.
During patient visits, structured interviews evaluating symptoms (including consumption of medications) and clinical investigations are performed. Throughout the study period, the patients make daily symptom scores regarding pain, urination, sense of urgency and quality of life following a structured formula.

[3] = system: patients with chronic pelvic pain syndrome (CPPS); assay: Investigator driven open trial, ten CPPS patients: symptoms, quality of life, side effects; assay type: in vivo, human
Experimental: Here we identify that IL-1RA treatment may be useful to alleviate bladder pain. The hypothesis was evaluated by enrolling ten patients with chronic pelvic pain syndrome, (CPPS) in an investigator driven open trial (see below and FIG. 7). The patients received daily anakinra treatment (100 mg) until a stable response was observed. Treatment was then transiently interrupted and when the symptoms returned, treatment was resumed. Patient 10 remained asymptomatic.
Ten patients with a long history of CPPS were enrolled after informed consent (age, gender, disease profile) and instructed to fill in a questionnaire detailing frequency of urination, pain, frequency of pain medication and quality of life.
as §1

Substance P [4] = assay: BPS trial: urine Substance P / neuropeptide levels; assay type: in vivo, human; details: for urine SP / neuropeptide levels, words: in vivo
Text: (§2) a) Schematic of the study protocol. Ten patients with a long history of BPS (ref EAU guidelines) were enrolled after informed consent and instructed to fill in a questionnaire detailing frequency of urination, pain, frequency of pain medication and quality of life. Laboratory samples were obtained at diagnosis, after the initiation of Kineret treatment (n=10), during the “treatment break” and after continuation of Kineret treatment (n=9). Neuropeptides involved in the pain response (Substance P) were quantified in urine. Peripheral blood RNA was subjected to genome wide transcriptomic analysis to define molecular effects of Kineret treatment.

[5] = system: WBC and Interleukins (IL6, IL8 and IL1b) in urine; assay: Nine-patient study: estimated WBC and Interleukins in urine; assay type: in vivo, human; details: prior, during or after treatment
Text: The effect of anakinra in the treatment of CPPS was studied in a clinical study. Inclusion criteria were CPPS mainly with the Bladder Pain phenotype, but also the with the Urethral and Prostate Pain phenotype. Exclusion criteria were uncontrolled diabetes mellitus, treatment for malignant disease within the preceding 10 years, pregnancy and age <18 years and ongoing infectious diseases, including urinary tract infections, and neutropenia (<1.5×10^9/L). Patients gave informed consent for the use of unidentified personal clinical data for research purposes. Included patients were examined using clinical standard methods to rule out any ongoing disease. Blood and serum for hemoglobulin, liver and kidney function tests and White Blood Cell (WBC) counts were analysed. Urine was obtained for dip stick test (leukocytesteras for WBC estimation, the nitur test for ruling out bacteriuria), standard urinary Interleukins (IL6, IL8 and IL1b) and for urine culture. Cystoscopy and CT urography were performed in all patients. Blood and serum analysis and cystoscopy were repeated approximately two weeks after the start of treatment, and after approximately three months. Nine patients were recruited (Table 2).

[6] = system: patients with bladder pain syndrome (BPS); assay: Open label trial, ten BPS patients: symptoms, quality of life, side effects; assay type: in vivo, human
Experimental: The inventors have tested the hypothesis that IL-1RA treatment may be useful to alleviate bladder pain. Ten patients with BPS were enrolled in an investigator-driven open trial. The patients received daily Kineret treatment (100 mg) for seven days. Treatment was then transiently interrupted and if the symptoms returned, treatment was resumed.
as §2
In this study, we addressed if IL-1RA treatment might be efficient in patients with chronic bladder pain. We conducted an explorative, open label trial in patients with BPS (Table 5). Patients received daily subcutaneous injections of Anakinra (100 mg) for seven days and the therapeutic effects were recorded. To address potential placebo effects, treatment was transiently interrupted for a maximum of 14 days and when the symptoms returned, treatment was resumed and continued with individual treatment regimes. […] In the remaining patients, bladder pathology was not detected. During the study, patients were instructed to keep a symptom journal recording the sensation of pain and the frequency of micturition.

For “anakinra: interleukin-1 receptor antagonist (r-metHuIL-1ra) produced in Escherichia coli; recombinant, slightly modified version of the human interleukin-1 receptor antagonist protein”, the “urine neuropeptide (Substance P) levels, words” value (Substance P [1]) is given as “markedly reduced; also recorded: inhibited”, the “urine IL-1β levels after Anakinra treatment” value (IL-1β) is given as “do not change” and the “bacterial clearance, words” value (murine cystitis model) is given as “accelerate bacterial clearance”. For the same substance, the “bladder inflammation, words” value (murine cystitis model) was “dramatically reduce bladder inflammation”, the “bacterial clearance, words” value (murine cystitis model; listed as Kineret) was “increased bacterial clearance” and the “bladder inflammation, words” value (murine cystitis model; listed as Kineret) was “dramatically reduced bladder inflammation”. For the same substance, the “patients in whom treatment was proven effective (decrease in symptom scoring)” value ([2]; in vivo) was 60%, the “Symptom Score Decrease at 1 week of treatment (number of patients)” value ([2]; of 15 patients recruited) was 9 and the “Symptom Score No Decrease at 1 week of treatment (number of patients)” value ([2]; of 15 patients recruited) was 6. For the same substance, the “symptom score (pain and frequency), words” value ([3]; P<0.01) was “reduction in symptom score”, the “quality of life, words” value ([3]; P<0.02) was “increase in quality of life” and the “patients with dramatic clinical effects” value ([3]; daily 100 mg, ten CPPS patients) was 9/10. For the same substance, the “duration of symptom relief” value ([3]; range over patients) was 0.5 to 8 days, the “time to symptom relief after the first dose” value ([3]; range over patients) was 1 to 6 h and the “patients with significant reduction in pain, urgency and frequency of urination” value ([3]; ten CPPS patients) was 9/10. For the same substance, the side effects ([3]; ten CPPS patients, 100 mg) was “Two patients reported local irritation at the injection site; also recorded: one patient developed neutropenia”, the “patients with reduced SP levels” value (Substance P [4]; first treatment round) was 9/10 and the “urine SP / neuropeptide levels, words” value (Substance P [4]) was “markedly decreased”. The “urine SP / neuropeptide levels, words” value (Substance P [4]; listed as Kineret) was “rapid reduction”, the “estimated WBC and Interleukins in urine, words” value [5] was “not significantly increased” and the “patients with dramatic clinical improvement” value ([6]; daily 100 mg for seven days, ten BPS patients) was 9/10. The lasting therapeutic effects ([6]; human, in vivo) was 3 days, the “quality of life, words” value ([6]; human, in vivo) was “increased quality of life” and the side effects ([6]; human, in vivo) was “Two patients reported local irritation at the injection site”. For the same substance, the “symptom score (pain and frequency), words” value ([6]; human, in vivo) was “reduction in symptom score”, the “quality of life, words” value ([6]; human, in vivo, listed as Kineret) was “marked increase in quality of life” and the “symptom relief at the onset of treatment, median” value ([6]; median) was 2 h. The “patients with complete, or close to complete clinical response” value ([6]; of ten patients) was “Nine of the patients”, the “relief of symptoms after the first injection” value ([6]; one patient with very severe BPS/ICS) was 1 to 2 h and the “duration of symptom relief” value ([6]; range over patients) was 0.5 to 8 days. For the same substance, the “time to symptom relief after the first dose” value ([6]; range over patients) was 1 to 6 h.
